How the values were obtained:
[1] = In vitro free radical scavenging antioxidant potency (DPPH); assay type: biochemical; conditions: 500 μM DPPH in ethanol, tris-HCl buffer pH 7.4, 45 minutes in dark, absorbency at 517 nm, triplicate
Method: Antioxidant activity of the compounds was tested for its capacity/potency to scavenge most widely used free radical, 1,1-diphenyl-2-picryl hyrazyl radical (DPPH). […] 200 μl of test compounds were reconstituted to 1 ml in tris-HCl buffer (pH 7.4). […] After incubation for 45 minutes in dark, the absorbency at 517 nm was recorder. Percent radical scavenging activity was calculated accordingly. All the readings were taken in triplicate.

[2] = target: T1, SHBG (Homo sapiens, UniProt P04278); conditions: Z. Naturforsch, C. Biosc. 997,52,834-843; cited from earlier work
T1 sequence (P04278 30-402): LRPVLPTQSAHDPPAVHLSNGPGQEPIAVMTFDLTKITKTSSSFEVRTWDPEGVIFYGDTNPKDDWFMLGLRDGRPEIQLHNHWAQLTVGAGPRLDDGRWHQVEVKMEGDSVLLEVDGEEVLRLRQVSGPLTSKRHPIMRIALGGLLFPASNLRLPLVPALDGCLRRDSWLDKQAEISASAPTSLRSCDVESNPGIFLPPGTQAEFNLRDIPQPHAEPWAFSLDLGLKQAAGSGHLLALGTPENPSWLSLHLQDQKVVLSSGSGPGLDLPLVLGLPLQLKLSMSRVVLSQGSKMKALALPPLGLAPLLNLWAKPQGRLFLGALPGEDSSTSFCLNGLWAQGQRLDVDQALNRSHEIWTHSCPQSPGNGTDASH

[3] = Japanese Pat No. JP02,101,011; cited from earlier work
[4] = Japanese Pat. No. JP0131J17; cited from earlier work

SMILES	50% Radical scavenging concentration [1]	Activity: binding to SHBG [2]	Activity: cardiotonic [3]	Activity: antitumor [4]
Cc1c(C)c2c(c(C)c1O)CCC(C)(CCCC(C)CCCC(C)CCCC(C)C)O2 (stereo not drawn) [DL α- Tocopherol, reference compound]	47.80 µg/mL			
COc1cc(CC(CO)C(CO)Cc2ccc(O)c(OC)c2)ccc1O (single isomer, unassigned; (-)) [(−)-Secoisolariciresinol, 2,3Bis-[4-hydroxy-3-(methoxyphenyl)methyl]-1,4-butanediol]	13.72 µg/mL	3. Binding to SHBG	2. Cardiotonic	1. Antitumor agent

— US6489514B1, “(-)-Secoisolariciresinol as an antioxidant obtained from a new natural source namely stereospermum personatum” (Council of Scientific and Industrial Research, priority 2001, dated 2002)
